Results published in PubChem BioAssay (NCI).
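Dose response: 5 concentrations. Exposure: 48 h. Format: 96-well plates. Endpoint: linear interpolation; highest concentration if not reached. Abbreviation: GI50, concentration required for 50% inhibition of growth. TGI denotes the concentration required for complete inhibition of growth.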

Columns and labels:
Assay in all cases: DTP human tumour cell line panel, 48 h
PC-3 prostate = test system: PC-3 prostate
HCT-15 colon = test system: HCT-15 colon
HCT-116 colon = test system: HCT-116 colon
EKVX NSCLC = test system: EKVX NSCLC
MDA-MB-435 = test system: MDA-MB-435
UO-31 renal = test system: UO-31 renal
HL-60(TB) leukemia = test system: HL-60(TB) leukemia
LOX IMVI melanoma = test system: LOX IMVI melanoma
SK-MEL-5 melanoma = test system: SK-MEL-5 melanoma
A549 NSCLC = test system: A549 NSCLC
SR leukemia = test system: SR leukemia
MOLT-4 leukemia = test system: MOLT-4 leukemia
HS 578T breast = test system: HS 578T breast
TK-10 renal = test system: TK-10 renal
M14 melanoma = test system: M14 melanoma
MDA-MB-468 breast = test system: MDA-MB-468 breast
KM12 colon = test system: KM12 colon
U251 CNS = test system: U251 CNS
SF-539 CNS = test system: SF-539 CNS
OVCAR-5 ovarian = test system: OVCAR-5 ovarian
OVCAR-8 ovarian = test system: OVCAR-8 ovarian
K-562 leukemia = test system: K-562 leukemia
OVCAR-3 ovarian = test system: OVCAR-3 ovarian
HCC-2998 colon = test system: HCC-2998 colon
NCI/ADR-RES ovarian = test system: NCI/ADR-RES ovarian
DU-145 prostate = test system: DU-145 prostate
NCI-H23 lung = test system: NCI-H23 lung
RPMI-8226 leukemia = test system: RPMI-8226 leukemia
MCF7 breast = test system: MCF7 breast
OVCAR-4 ovarian = test system: OVCAR-4 ovarian
HOP-92 NSCLC = test system: HOP-92 NSCLC
786-0 renal = test system: 786-0 renal
SK-MEL-2 melanoma = test system: SK-MEL-2 melanoma
NCI-H522 lung = test system: NCI-H522 lung
A498 renal = test system: A498 renal
HOP-62 NSCLC = test system: HOP-62 NSCLC
MALME-3M melanoma = test system: MALME-3M melanoma
NCI-H226 lung = test system: NCI-H226 lung
COLO 205 colon = test system: COLO 205 colon
SK-MEL-28 melanoma = test system: SK-MEL-28 melanoma
SN12C renal = test system: SN12C renal
RXF 393 renal = test system: RXF 393 renal
SK-OV-3 ovarian = test system: SK-OV-3 ovarian
SW-620 colon = test system: SW-620 colon
ACHN renal = test system: ACHN renal
IGROV1 ovarian = test system: IGROV1 ovarian
T-47D breast = test system: T-47D breast
NCI-H460 lung = test system: NCI-H460 lung
UACC-257 melanoma = test system: UACC-257 melanoma
MDA-MB-231 breast = test system: MDA-MB-231 breast
CAKI-1 renal = test system: CAKI-1 renal
SF-295 CNS = test system: SF-295 CNS
SNB-19 CNS = test system: SNB-19 CNS
SF-268 CNS = test system: SF-268 CNS
BT-549 breast = test system: BT-549 breast
CCRF-CEM leukemia = test system: CCRF-CEM leukemia
SNB-75 CNS = test system: SNB-75 CNS
UACC-62 melanoma = test system: UACC-62 melanoma
HT29 colon = test system: HT29 colon

Work on `O=C(CNc1nc(-c2ccccc2)cs1)Nc1ccccc1` yielded a GI50 (PC-3 prostate) of 2.96 µM, a TGI (PC-3 prostate) of 30.3 µM and a GI50 (HCT-15 colon) of 1.61 µM. For the same compound, the TGI (HCT-15 colon) was 3.36 µM, the GI50 (HCT-116 colon) was 1.81 µM and the TGI (HCT-116 colon) was 5.75 µM. For the same compound, the GI50 (EKVX NSCLC) was 1.58 µM, the TGI (EKVX NSCLC) was 3.14 µM and the GI50 (MDA-MB-435) was 2.05 µM. The TGI (MDA-MB-435) was 5.32 µM, the GI50 (UO-31 renal) was 2.37 µM and the TGI (UO-31 renal) was 12.9 µM. For the same compound, the GI50 (HL-60(TB) leukemia) was 1.83 µM, the TGI (HL-60(TB) leukemia) was 6.67 µM and the GI50 (LOX IMVI melanoma) was 1.21 µM. The TGI (LOX IMVI melanoma) was 2.7 µM, the GI50 (SK-MEL-5 melanoma) was 1.62 µM and the TGI (SK-MEL-5 melanoma) was 2.98 µM. It also gave a GI50 (A549 NSCLC) of 3.25 µM, a TGI (A549 NSCLC) of 13.5 µM and a GI50 (SR leukemia) of 1.42 µM. For the same compound, the TGI (SR leukemia) was > 100 µM, the GI50 (MOLT-4 leukemia) was 1.83 µM and the TGI (MOLT-4 leukemia) was 7.46 µM. For the same compound, the GI50 (HS 578T breast) was 3.04 µM, the TGI (HS 578T breast) was > 100 µM and the GI50 (TK-10 renal) was 4.64 µM. It also gave a TGI (TK-10 renal) of 12.4 µM, a GI50 (M14 melanoma) of 1.52 µM and a TGI (M14 melanoma) of 3.49 µM. For the same compound, the GI50 (MDA-MB-468 breast) was 1.55 µM, the TGI (MDA-MB-468 breast) was 3.2 µM and the GI50 (KM12 colon) was 3.87 µM. The TGI (KM12 colon) was 14.9 µM, the GI50 (U251 CNS) was 1.56 µM and the TGI (U251 CNS) was 3.34 µM. It also gave a GI50 (SF-539 CNS) of 1.77 µM, a TGI (SF-539 CNS) of 3.22 µM and a GI50 (OVCAR-5 ovarian) of 2.95 µM. For the same compound, the TGI (OVCAR-5 ovarian) was 7.03 µM, the GI50 (OVCAR-8 ovarian) was 2.96 µM and the TGI (OVCAR-8 ovarian) was 14.9 µM. For the same compound, the GI50 (K-562 leukemia) was 2.32 µM, the TGI (K-562 leukemia) was > 100 µM and the GI50 (OVCAR-3 ovarian) was 1.93 µM. The TGI (OVCAR-3 ovarian) was 4.36 µM, the GI50 (HCC-2998 colon) was 1.77 µM and the TGI (HCC-2998 colon) was 3.88 µM. For the same compound, the GI50 (NCI/ADR-RES ovarian) was 2.29 µM, the TGI (NCI/ADR-RES ovarian) was 6.16 µM and the GI50 (DU-145 prostate) was 3.74 µM. For the same compound, the TGI (DU-145 prostate) was 13.4 µM, the GI50 (NCI-H23 lung) was 1.48 µM and the TGI (NCI-H23 lung) was 3.15 µM. For the same compound, the GI50 (RPMI-8226 leukemia) was 2.29 µM, the TGI (RPMI-8226 leukemia) was 80.9 µM and the GI50 (MCF7 breast) was 1.4 µM. The TGI (MCF7 breast) was 3.41 µM, the GI50 (OVCAR-4 ovarian) was 4.88 µM and the TGI (OVCAR-4 ovarian) was 18.1 µM. It also gave a GI50 (HOP-92 NSCLC) of 3.47 µM, a TGI (HOP-92 NSCLC) of 16.5 µM and a GI50 (786-0 renal) of 2.63 µM. For the same compound, the TGI (786-0 renal) was 5.48 µM, the GI50 (SK-MEL-2 melanoma) was 1.73 µM and the TGI (SK-MEL-2 melanoma) was 4.29 µM. For the same compound, the GI50 (NCI-H522 lung) was 1.53 µM, the TGI (NCI-H522 lung) was 3.02 µM and the GI50 (A498 renal) was 11.1 µM. For the same compound, the TGI (A498 renal) was 23.5 µM, the GI50 (HOP-62 NSCLC) was 2.17 µM and the TGI (HOP-62 NSCLC) was 6.31 µM. For the same compound, the GI50 (MALME-3M melanoma) was 1.54 µM, the TGI (MALME-3M melanoma) was 3.23 µM and the GI50 (NCI-H226 lung) was 1.94 µM. It also gave a TGI (NCI-H226 lung) of 7.99 µM, a GI50 (COLO 205 colon) of 2.16 µM and a TGI (COLO 205 colon) of 4.57 µM. The GI50 (SK-MEL-28 melanoma) was 2.56 µM, the TGI (SK-MEL-28 melanoma) was 6.81 µM and the GI50 (SN12C renal) was 1.54 µM. For the same compound, the TGI (SN12C renal) was 3.44 µM, the GI50 (RXF 393 renal) was 1.85 µM and the TGI (RXF 393 renal) was 3.86 µM. It also gave a GI50 (SK-OV-3 ovarian) of 2.92 µM, a TGI (SK-OV-3 ovarian) of 10.2 µM and a GI50 (SW-620 colon) of 2.46 µM. The TGI (SW-620 colon) was 6.04 µM, the GI50 (ACHN renal) was 2.6 µM and the TGI (ACHN renal) was 10.6 µM. The GI50 (IGROV1 ovarian) was 1.5 µM, the TGI (IGROV1 ovarian) was 4.87 µM and the GI50 (T-47D breast) was 2.57 µM. It also gave a TGI (T-47D breast) of 10.2 µM, a GI50 (NCI-H460 lung) of 2.94 µM and a TGI (NCI-H460 lung) of 11.8 µM. The GI50 (UACC-257 melanoma) was 2.05 µM, the TGI (UACC-257 melanoma) was 8.33 µM and the GI50 (MDA-MB-231 breast) was 1.93 µM. It also gave a TGI (MDA-MB-231 breast) of 7.28 µM, a GI50 (CAKI-1 renal) of 2.2 µM and a TGI (CAKI-1 renal) of 10.6 µM. It also gave a GI50 (SF-295 CNS) of 2.48 µM, a TGI (SF-295 CNS) of 11.6 µM and a GI50 (SNB-19 CNS) of 1.82 µM. The TGI (SNB-19 CNS) was 4.16 µM, the GI50 (SF-268 CNS) was 3.33 µM and the TGI (SF-268 CNS) was 22.9 µM. The GI50 (BT-549 breast) was 2.25 µM, the TGI (BT-549 breast) was 4.23 µM and the GI50 (CCRF-CEM leukemia) was 1.88 µM. The TGI (CCRF-CEM leukemia) was > 100 µM, the GI50 (SNB-75 CNS) was 1.05 µM and the TGI (SNB-75 CNS) was 6.68 µM. For the same compound, the GI50 (UACC-62 melanoma) was 1.14 µM, the TGI (UACC-62 melanoma) was 2.58 µM and the GI50 (HT29 colon) was 2.06 µM. The TGI (HT29 colon) was 4.08 µM.
